One experiment concerns the target T1, human μ-opioid receptor (Homo sapiens, UniProt P35372).
T1 construct: expressed in transfected cells; host or cells: CHO-K1
In words: Human μ-opioid receptor radioligand assay ([3H]-DAMGO). The format is binding. The essentials: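 Transfected CHO-K1 membranes (20 μg) incubated with 1 nM [3H]-DAMGO in 50 mM Tris-HCl, 5 mM MgCl2, pH 7.4, 60 min at 27 °C; non-specific binding with 10 μM naloxone. Test compound at five concentrations; bound radioactivity counted after filtration by scintillation.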

The target of experiment [1] is Human α2δ-1 subunit of Cav2.2 calcium channel (Homo sapiens, UniProt P54289). In words: Human α2δ-1 subunit of Cav2.2 calcium channel assay ([3H]-Gabapentin). The format is binding. Summed up: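 α2δ-1-enriched membranes (2.5 μg) were incubated with 15 nM [3H]-gabapentin in 10 mM Hepes-KOH pH 7.4 for 60 min at 27 °C. Non-specific binding was defined with 10 μM pregabalin. Compounds were tested at five concentrations, with filtration and scintillation counting.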
Human α2δ-1 subunit of Cav2.2 calcium channel, sequence (P54289 25-1103): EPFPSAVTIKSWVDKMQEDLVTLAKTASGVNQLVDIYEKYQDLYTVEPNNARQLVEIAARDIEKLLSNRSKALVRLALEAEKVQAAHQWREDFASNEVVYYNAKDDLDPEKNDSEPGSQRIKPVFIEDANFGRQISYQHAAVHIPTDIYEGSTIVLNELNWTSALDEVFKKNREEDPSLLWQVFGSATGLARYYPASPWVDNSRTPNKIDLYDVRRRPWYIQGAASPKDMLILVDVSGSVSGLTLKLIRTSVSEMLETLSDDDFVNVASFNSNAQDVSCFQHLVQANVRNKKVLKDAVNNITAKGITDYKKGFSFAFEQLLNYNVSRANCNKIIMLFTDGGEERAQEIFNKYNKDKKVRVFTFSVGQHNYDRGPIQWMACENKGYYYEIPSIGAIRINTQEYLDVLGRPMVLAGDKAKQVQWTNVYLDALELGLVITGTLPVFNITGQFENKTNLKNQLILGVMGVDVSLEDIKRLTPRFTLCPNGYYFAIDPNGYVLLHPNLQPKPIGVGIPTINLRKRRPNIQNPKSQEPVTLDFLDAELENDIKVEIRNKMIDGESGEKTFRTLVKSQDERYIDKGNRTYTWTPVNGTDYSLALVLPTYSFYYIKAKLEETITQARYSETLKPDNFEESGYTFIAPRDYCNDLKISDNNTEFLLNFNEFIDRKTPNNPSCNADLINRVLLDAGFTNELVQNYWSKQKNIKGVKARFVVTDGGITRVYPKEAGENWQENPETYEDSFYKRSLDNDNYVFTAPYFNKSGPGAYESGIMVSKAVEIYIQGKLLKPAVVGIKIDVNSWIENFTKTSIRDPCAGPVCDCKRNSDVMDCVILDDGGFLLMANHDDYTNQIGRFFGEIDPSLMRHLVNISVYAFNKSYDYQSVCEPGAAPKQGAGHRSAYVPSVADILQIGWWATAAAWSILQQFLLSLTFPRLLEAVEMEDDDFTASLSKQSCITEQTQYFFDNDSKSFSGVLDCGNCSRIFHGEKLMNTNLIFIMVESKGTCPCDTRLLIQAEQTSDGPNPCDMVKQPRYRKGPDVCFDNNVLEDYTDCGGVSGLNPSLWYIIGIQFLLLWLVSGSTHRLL

Read-outs that look alike come from different tables or passages of the source.

T1 sequence (P35372 whole entry): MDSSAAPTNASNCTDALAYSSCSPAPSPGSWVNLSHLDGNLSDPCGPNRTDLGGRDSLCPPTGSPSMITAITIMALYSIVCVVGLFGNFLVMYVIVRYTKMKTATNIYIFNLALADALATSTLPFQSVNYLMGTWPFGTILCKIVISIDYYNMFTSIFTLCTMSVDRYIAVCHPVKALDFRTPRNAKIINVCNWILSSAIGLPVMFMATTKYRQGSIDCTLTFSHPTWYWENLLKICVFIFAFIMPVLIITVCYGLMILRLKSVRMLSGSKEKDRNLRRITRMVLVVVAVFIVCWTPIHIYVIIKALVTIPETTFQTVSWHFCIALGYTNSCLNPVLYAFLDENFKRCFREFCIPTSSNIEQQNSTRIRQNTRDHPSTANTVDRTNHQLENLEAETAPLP

A word on the Ki: it is a measure of affinity in units of concentration, obtained from inhibition or displacement. Turning to `CNCCC(Oc1cc(O)ccc1-n1nc2c(N(C)C)nnc(C)c2c1C)c1ccccc1` (centres unmarked) [Example 98, 4-(7-(dimethylamino)-3,4-dimethyl-2H-pyrazolo[3,4-d]pyridazin-2-yl)-3-(3-(methylamino)-1-phenylpropoxy)phenol], the Ki is over 500 nM at human μ-opioid receptor (transfected CHO-K1 cell membranes, 1 nM [3H]-DAMGO, read-out: Binding μ (Ki)) and 500 to 5000 nM in experiment [1] (human α2δ-1 enriched membranes, 15 nM [3H]-Gabapentin, read-out: Binding α2δ-1 (Ki)).

For `CNCC[C@H](Oc1ccccc1-n1nc2c(N(C)C)nnc(C)c2c1C)c1ccccc1` [Example 99, (S)-N,N,3,4-Tetramethyl-2-(2-(3-(methylamino)-1-phenylpropoxy)phenyl)-2H-pyrazolo[3,4-d]pyridazin-7-amine], the values for the Ki (on human μ-opioid receptor; in experiment [1]) were 100 to 500 nM and 500 to 5000 nM, respectively.

`CNCC[C@@H](Oc1ccccc1-n1nc2c(N(C)C)nnc(C)c2c1C)c1ccccc1` [Example 100, (R)-N,N,3,4-tetramethyl-2-(2-(3-(methylamino)-1-phenylpropoxy)phenyl)-2H-pyrazolo[3,4-d]pyridazin-7-amine]: the Ki at human μ-opioid receptor was over 500 nM; in experiment [1] it was 500 to 5000 nM.

Take `CCNCC[C@@H](Oc1ccccc1-n1nc2c(N(C)C)nnc(C)c2c1C)c1ccccc1` [Example 101, (R)-2-(2-(3-(Ethylamino)-1-phenylpropoxy)phenyl)-N,N,3,4-tetramethyl-2H-pyrazolo[3,4-d]pyridazin-7-amine]: the Ki at human μ-opioid receptor fell in the range of 100 to 500 nM; in experiment [1], 500 to 5000 nM.

Take `CCNCC[C@H](Oc1ccccc1-n1nc2c(N(C)C)nnc(C)c2c1C)c1ccccc1` [Example 102, (S)-2-(2-(3-(ethylamino)-1-phenylpropoxy)phenyl)-N,N,3,4-tetramethyl-2H-pyrazolo[3,4-d]pyridazin-7-amine]: the Ki at human μ-opioid receptor was over 500 nM; in experiment [1], 500 to 5000 nM.

For the molecule `CNCC[C@H](Oc1ccccc1-n1nc2c(N(C)C)nnc(C)c2c1C)c1cccc(F)c1` [Example 103, (S)-2-(2-(1-(3-Fluorophenyl)-3-(methylamino)propoxy)phenyl)-N,N,3,4-tetramethyl-2H-pyrazolo[3,4-d]pyridazin-7-amine], the Ki at human μ-opioid receptor was over 500 nM; in experiment [1], under 500 nM.

As to `CNCC[C@@H](Oc1ccccc1-n1nc2c(N(C)C)nnc(C)c2c1C)c1cccc(F)c1` [Example 104, (R)-2-(2-(1-(3-fluorophenyl)-3-(methylamino)propoxy)phenyl)-N,N,3,4-tetramethyl-2H-pyrazolo[3,4-d]pyridazin-7-amine], the Ki at human μ-opioid receptor was in the range of 100 to 500 nM; in experiment [1], 500 to 5000 nM.

The values above are taken from patent US10562908B2, “Ortho substituted phenylpyrazolo- and phenylpyrrolo-pyridazine derivatives having multimodal activity against pain” (priority 2016, dated 2020).
